Assay results from paper PMC4770324 (Journal of Medicinal Chemistry, 2016).

Assay: Chemical stability on storage

SMILES: O=c1[nH]cnc2c(-n3cc(CCN4CCC(c5cc(F)cc(F)c5)CC4)cn3)nccc12 [Compound 54l]
- chemical stability in air: chemical instability
